Format in all cases: cell-based
Experiment [1] has as its system SLC47A1 (MATE1). As to the kind of experiment: Effect of Rifampicin on SLC47A1 mRNA expression in human skin organoculture (real time PCR). Conditions: Rifampicin 20 μM, 72 hours, p≦0.05. As to the method:
(§1) Fresh human skin samples from 3 different donors were used and maintained in organoculture. Four skin biopsies of 6 mm diameter were used per well of 6-well plate, filled with long term skin culture medium (Biopredic, France) (FIG. 1). Skin samples were treated with 20 μM Rifampicin during 3 days. In a separate experiment, skin samples were exposed during one hour every day during 3 days to UV lights via a solar simulator (UVA 110 W/m^2; UVB 20 W/m^2). Untreated skin samples were used as control. The culture plates were kept in a cell culture incubator set at 37° C., 5% CO2 and saturated hygrometry. At the end of treatment period gene expression of SLC transporters was measured as described above.
(§2) After homogenization of skin samples or hepatocytes in lysis buffer (Promega), total RNA was isolated using SV Total RNA Isolation System (Promega), in accordance with the instructions provided by the constructor. RNA concentrations were quantified spectrophotometrically. Quantification of mRNA expression of human SLC transporters was performed using TaqMan PCR techniques (Applied Biosystems). Experiments were carried out on a 7500 real time PCR System (Applied Biosystems) using Assay-on-Demand gene expression products. For this, 500 ng of total RNA were reverse-transcribed using the High Capacity RNA to cDNA Master Mix kit (Applied Biosystems).
For orientation: In qPCR the cycle at which signal appears reflects the starting amount.

In another experiment the test system is SLC47A2 (MATE2). As to the kind of experiment: Effect of Rifampicin on SLC47A2 mRNA expression in human skin organoculture (real time PCR). Conditions: Rifampicin 20 μM, 72 hours. How it is done: as §1, §2
The subject of experiment [2] is SLC47A1 (MATE1). As to the kind of experiment: Effect of Rifampicin on SLC47A1 mRNA expression in human hepatocytes in primary culture (real time PCR). Conditions: Rifampicin 20 μM, 72 hours. As to the method: as §2

For `CO[C@H]1/C=C/O[C@@]2(C)Oc3c(C)c(O)c4c(O)c(c(/C=N/N5CCN(C)CC5)c(O)c4c3C2=O)NC(=O)/C(C)=C\C=C\[C@H](C)[C@H](O)[C@@H](C)[C@@H](O)[C@@H](C)[C@H](OC(C)=O)[C@@H]1C` [Rifampicin], the “decrease in MATE1 expression” value in the experiment on SLC47A1 (MATE1) [1] was found to be 44%. Moreover, the “decrease in MATE2 expression” value in the experiment on SLC47A2 (MATE2) is recorded as 30%. Besides, in the experiment with SLC47A1 (MATE1) [2], the “decrease in expression of SLC47A1 (MATE1)” value amounted to 48%.
